ChEMBL document CHEMBL5724914, “Linking interpersonal differences in gut microbiota composition and drug biotransformation activity” (2024)

Tests used:
[1] = (§1) The drug is tested on Z-017 corresponding to mouse gut metagenome with ENA study accession number: PRJEB37062 and ENA sample accession number: ERS12561816 for biotransformation under anaerobic condition. The drug concentrations were measured over 9 timepoints collected between 0 and 24 hours of incubation by liquid-chromatography-coupled mass spectrometry (LC–MS); details: 2 µM
[2] = as §1, with “WLS-007” for “Z-017”, “human” for “mouse”, “ERS12561742” for “ERS12561816”; details: 2 µM
[3] = human gut metagenome, 24 h, 2 µM
[4] = as §1, with “Z-011” for “Z-017”, “ERS12561811” for “ERS12561816”; details: 2 µM
[5] = human gut metagenome, 24 h, 2 µM; remark: listed apart in the source
[6] = as §1, with “WLS-006” for “Z-017”, “human” for “mouse”, “ERS12561741” for “ERS12561816”; details: 2 µM
[7] = as §1, with “WLS-098” for “Z-017”, “human” for “mouse”, “ERS12561754” for “ERS12561816”; details: 2 µM
[8] = as §1, with “WLS-082” for “Z-017”, “human” for “mouse”, “ERS12561751” for “ERS12561816”; details: 2 µM
[9] = human gut metagenome, 24 h, 2 µM; remark: listed apart in the source
Note: call rule not given here.

SMILES: N=C(N)NC(=O)Cc1c(Cl)cccc1Cl [GUANFACINE]
- Bacterial Biotransformation [1]: Compound NOT metabolized
- Bacterial Biotransformation [2]: Compound NOT metabolized
- Bacterial Biotransformation [3]: Compound NOT metabolized
- Bacterial Biotransformation [4]: Compound NOT metabolized
- Bacterial Biotransformation [5]: Compound NOT metabolized
- Bacterial Biotransformation [6]: Compound NOT metabolized
- Bacterial Biotransformation [7]: Compound NOT metabolized
- Bacterial Biotransformation [8]: Compound NOT metabolized
- Bacterial Biotransformation [9]: Compound NOT metabolized

SMILES: Nc1nc(N)nc(-c2cc(Cl)ccc2Cl)n1.O=C(O)/C=C\C(=O)O [IRSOGLADINE MALEATE]
- Bacterial Biotransformation [1]: Compound NOT metabolized
- Bacterial Biotransformation [2]: Compound NOT metabolized
- Bacterial Biotransformation [3]: Compound NOT metabolized
- Bacterial Biotransformation [4]: Compound NOT metabolized
- Bacterial Biotransformation [5]: Compound NOT metabolized
- Bacterial Biotransformation [6]: Compound NOT metabolized
- Bacterial Biotransformation [7]: Compound metabolized
- Bacterial Biotransformation [8]: Compound NOT metabolized
- Bacterial Biotransformation [9]: Compound NOT metabolized

SMILES: CN1CCC(=C2c3ccccc3CC(=O)c3sccc32)CC1.O=C(O)/C=C/C(=O)O [KETOTIFEN FUMARATE]
- Bacterial Biotransformation [1]: Compound NOT metabolized
- Bacterial Biotransformation [2]: Compound metabolized
- Bacterial Biotransformation [3]: Compound metabolized
- Bacterial Biotransformation [4]: Compound NOT metabolized
- Bacterial Biotransformation [5]: Compound metabolized
- Bacterial Biotransformation [6]: Compound metabolized
- Bacterial Biotransformation [7]: Compound metabolized
- Bacterial Biotransformation [8]: Compound NOT metabolized
- Bacterial Biotransformation [9]: Compound metabolized

SMILES: CC[C@H](C)C(=O)O[C@H]1CCC=C2C=C[C@H](C)[C@H](CC[C@@H]3C[C@@H](O)CC(=O)O3)[C@H]21 [MEVASTATIN]
- Bacterial Biotransformation [1]: Compound metabolized
- Bacterial Biotransformation [2]: Compound NOT metabolized
- Bacterial Biotransformation [3]: Compound metabolized
- Bacterial Biotransformation [4]: Compound NOT metabolized
- Bacterial Biotransformation [5]: Compound metabolized
- Bacterial Biotransformation [6]: Compound metabolized
- Bacterial Biotransformation [7]: Compound NOT metabolized
- Bacterial Biotransformation [8]: Compound metabolized
- Bacterial Biotransformation [9]: Compound metabolized

SMILES: COc1ccc2cc([C@H](C)C(=O)O)ccc2c1 [NAPROXEN]
- Bacterial Biotransformation [1]: Compound NOT metabolized
- Bacterial Biotransformation [2]: Compound NOT metabolized
- Bacterial Biotransformation [3]: Compound NOT metabolized
- Bacterial Biotransformation [4]: Compound NOT metabolized
- Bacterial Biotransformation [5]: Compound metabolized
- Bacterial Biotransformation [6]: Compound metabolized
- Bacterial Biotransformation [7]: Compound metabolized
- Bacterial Biotransformation [8]: Compound metabolized
- Bacterial Biotransformation [9]: Compound metabolized

SMILES: C#C[C@]1(OC(C)=O)CC[C@H]2[C@@H]3CCC4=C/C(=N/O)CC[C@@H]4[C@H]3CC[C@@]21CC [NORGESTIMATE]
- Bacterial Biotransformation [1]: Compound NOT metabolized
- Bacterial Biotransformation [2]: Compound metabolized
- Bacterial Biotransformation [3]: Compound metabolized
- Bacterial Biotransformation [4]: Compound NOT metabolized
- Bacterial Biotransformation [5]: Compound NOT metabolized
- Bacterial Biotransformation [6]: Compound metabolized
- Bacterial Biotransformation [7]: Compound metabolized
- Bacterial Biotransformation [8]: Compound metabolized
- Bacterial Biotransformation [9]: Compound metabolized

SMILES: COc1ccnc(C[S+]([O-])c2nc3ccc(OC(F)F)cc3[nH]2)c1OC (centres undefined) [PANTOPRAZOLE]
- Bacterial Biotransformation [1]: Compound metabolized
- Bacterial Biotransformation [2]: Compound metabolized
- Bacterial Biotransformation [3]: Compound metabolized
- Bacterial Biotransformation [4]: Compound metabolized
- Bacterial Biotransformation [5]: Compound metabolized
- Bacterial Biotransformation [6]: Compound metabolized
- Bacterial Biotransformation [7]: Compound metabolized
- Bacterial Biotransformation [8]: Compound metabolized
- Bacterial Biotransformation [9]: Compound metabolized

SMILES: O=C1N=C([O-])NC1(c1ccccc1)c1ccccc1.[Na+] [PHENYTOIN SODIUM]
- Bacterial Biotransformation [1]: Compound NOT metabolized
- Bacterial Biotransformation [2]: Compound metabolized
- Bacterial Biotransformation [3]: Compound NOT metabolized
- Bacterial Biotransformation [4]: Compound NOT metabolized
- Bacterial Biotransformation [5]: Compound NOT metabolized
- Bacterial Biotransformation [6]: Compound metabolized
- Bacterial Biotransformation [7]: Compound metabolized
- Bacterial Biotransformation [8]: Compound metabolized
- Bacterial Biotransformation [9]: Compound metabolized

SMILES: C[C@]12C=CC(=O)C=C1CC[C@@H]1[C@@H]2C(=O)C[C@@]2(C)[C@H]1CC[C@]2(O)C(=O)CO [PREDNISONE]
- Bacterial Biotransformation [1]: Compound metabolized
- Bacterial Biotransformation [2]: Compound metabolized
- Bacterial Biotransformation [3]: Compound metabolized
- Bacterial Biotransformation [4]: Compound NOT metabolized
- Bacterial Biotransformation [5]: Compound metabolized
- Bacterial Biotransformation [6]: Compound metabolized
- Bacterial Biotransformation [7]: Compound metabolized
- Bacterial Biotransformation [8]: Compound metabolized
- Bacterial Biotransformation [9]: Compound metabolized

SMILES: CN(CCOc1ccc(CC2SC(=O)NC2=O)cc1)c1ccccn1.O=C(O)/C=C\C(=O)O (centres undefined) [ROSIGLITAZONE MALEATE]
- Bacterial Biotransformation [1]: Compound NOT metabolized
- Bacterial Biotransformation [2]: Compound metabolized
- Bacterial Biotransformation [3]: Compound metabolized
- Bacterial Biotransformation [4]: Compound NOT metabolized
- Bacterial Biotransformation [5]: Compound metabolized
- Bacterial Biotransformation [6]: Compound metabolized
- Bacterial Biotransformation [7]: Compound metabolized
- Bacterial Biotransformation [8]: Compound NOT metabolized
- Bacterial Biotransformation [9]: Compound metabolized

SMILES: CC(C)c1nc(N(C)S(C)(=O)=O)nc(-c2ccc(F)cc2)c1/C=C/[C@@H](O)C[C@@H](O)CC(=O)[O-].CC(C)c1nc(N(C)S(C)(=O)=O)nc(-c2ccc(F)cc2)c1/C=C/[C@@H](O)C[C@@H](O)CC(=O)[O-].[Ca+2] [ROSUVASTATIN CALCIUM]
- Bacterial Biotransformation [1]: Compound NOT metabolized
- Bacterial Biotransformation [2]: Compound metabolized
- Bacterial Biotransformation [3]: Compound NOT metabolized
- Bacterial Biotransformation [4]: Compound NOT metabolized
- Bacterial Biotransformation [5]: Compound metabolized
- Bacterial Biotransformation [6]: Compound metabolized
- Bacterial Biotransformation [7]: Compound metabolized
- Bacterial Biotransformation [8]: Compound metabolized
- Bacterial Biotransformation [9]: Compound metabolized

SMILES: O=C(O)c1cc(/N=N/c2ccc(S(=O)(=O)Nc3ccccn3)cc2)ccc1O [SULFASALAZINE]
- Bacterial Biotransformation [1]: Compound metabolized
- Bacterial Biotransformation [2]: Compound metabolized
- Bacterial Biotransformation [3]: Compound metabolized
- Bacterial Biotransformation [4]: Compound metabolized
- Bacterial Biotransformation [5]: Compound metabolized
- Bacterial Biotransformation [6]: Compound metabolized
- Bacterial Biotransformation [7]: Compound metabolized
- Bacterial Biotransformation [8]: Compound metabolized
- Bacterial Biotransformation [9]: Compound metabolized

SMILES: C=CC[C@@H]1/C=C(\C)C[C@H](C)C[C@H](OC)[C@H]2O[C@@](O)(C(=O)C(=O)N3CCCC[C@H]3C(=O)O[C@H](/C(C)=C/[C@@H]3CC[C@@H](O)[C@H](OC)C3)[C@H](C)[C@@H](O)CC1=O)[C@H](C)C[C@@H]2OC.O [TACROLIMUS]
- Bacterial Biotransformation [1]: Compound NOT metabolized
- Bacterial Biotransformation [2]: Compound NOT metabolized
- Bacterial Biotransformation [3]: Compound metabolized
- Bacterial Biotransformation [4]: Compound NOT metabolized
- Bacterial Biotransformation [5]: Compound metabolized
- Bacterial Biotransformation [6]: Compound metabolized
- Bacterial Biotransformation [7]: Compound NOT metabolized
- Bacterial Biotransformation [8]: Compound metabolized
- Bacterial Biotransformation [9]: Compound metabolized

SMILES: CCS(=O)(=O)CCn1c([N+](=O)[O-])cnc1C [TINIDAZOLE]
- Bacterial Biotransformation [1]: Compound metabolized
- Bacterial Biotransformation [2]: Compound metabolized
- Bacterial Biotransformation [3]: Compound NOT metabolized
- Bacterial Biotransformation [4]: Compound metabolized
- Bacterial Biotransformation [5]: Compound metabolized
- Bacterial Biotransformation [6]: Compound metabolized
- Bacterial Biotransformation [7]: Compound metabolized
- Bacterial Biotransformation [8]: Compound metabolized
- Bacterial Biotransformation [9]: Compound metabolized

SMILES: COc1ccc(CN2CCNCC2)c(OC)c1OC.Cl.Cl [TRIMETAZIDINE DIHYDROCHLORIDE]
- Bacterial Biotransformation [1]: Compound NOT metabolized
- Bacterial Biotransformation [2]: Compound NOT metabolized
- Bacterial Biotransformation [3]: Compound NOT metabolized
- Bacterial Biotransformation [4]: Compound NOT metabolized
- Bacterial Biotransformation [5]: Compound NOT metabolized
- Bacterial Biotransformation [6]: Compound NOT metabolized
- Bacterial Biotransformation [7]: Compound NOT metabolized
- Bacterial Biotransformation [8]: Compound NOT metabolized
- Bacterial Biotransformation [9]: Compound NOT metabolized

SMILES: CN1[C@@H]2CC[C@H]1C[C@@H](OC(=O)c1c[nH]c3ccccc13)C2 [TROPISETRON]
- Bacterial Biotransformation [1]: Compound NOT metabolized
- Bacterial Biotransformation [2]: Compound NOT metabolized
- Bacterial Biotransformation [3]: Compound NOT metabolized
- Bacterial Biotransformation [4]: Compound NOT metabolized
- Bacterial Biotransformation [5]: Compound NOT metabolized
- Bacterial Biotransformation [6]: Compound NOT metabolized
- Bacterial Biotransformation [7]: Compound NOT metabolized
- Bacterial Biotransformation [8]: Compound NOT metabolized
- Bacterial Biotransformation [9]: Compound NOT metabolized
